“And” between values parts separate entries of the source, which are not always exact repeats. Equal values may be shown once.
Tests used:
Assay type in all cases: cell-based
Set-up in all cases: GPCRome screening signal at PTGIR / GPCRome screening signal at PTH1R / GPCRome screening signal at PTH2R / GPCRome screening signal at QRFP / GPCRome screening signal at RXFP2 / GPCRome screening signal at RXFP3 / GPCRome screening signal at RXFP4 / GPCRome screening signal at S1PR2 / GPCRome screening signal at S1PR3 / GPCRome screening signal at S1PR4 / GPCRome screening signal at S1PR5 / GPCRome screening signal at SCTR / GPCRome screening signal at SSTR2 / GPCRome screening signal at SSSTR / GPCRome screening signal at SSTR4 / GPCRome screening signal at SSTR5 / GPCRome screening signal at SUCNR1 / GPCRome screening signal at TA1 / GPCRome screening signal at TAAR2 / GPCRome screening signal at TAAR5 / GPCRome screening signal at TAAR6 / GPCRome screening signal at TAAR8 / GPCRome screening signal at TACR1 / GPCRome screening signal at TACR2 / GPCRome screening signal at TACR3 / GPCRome screening signal at TBXA2R / GPCRome screening signal at TSHR / GPCRome screening signal at UTS2R / GPCRome screening signal at VIPR2 / GPCRome screening signal at GPR68 no V2 Tail / GPCRome screening signal at GRM2 / GPCRome screening signal at GRM3: reference not given here
[1] = biological target: T1, 320 non-olfactory GPCRs (Homo sapiens, UniProt Q96RJ0); conditions: receptor TA1
T1 construct: expressed in transfected cells; host or cells: HTLA cells

[2] = biological target: 320 non-olfactory GPCRs (Homo sapiens, UniProt O95977); conditions: receptor S1PR4
[3] = biological target: 320 non-olfactory GPCRs (Homo sapiens, UniProt P30874); conditions: receptor SSTR2
[4] = biological target: T2, 320 non-olfactory GPCRs (Homo sapiens, UniProt Q96RI9); conditions: receptor TAAR9
T2 construct: expressed in transfected cells; host or cells: HTLA cells

[5] = Fig_5f, single replicate values
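Throughout, for GPCRome agonism screen response: fold over basal response of each receptor without drug.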

Chain of 320 non-olfactory GPCRs (Homo sapiens, UniProt P30874) (P30874 whole entry): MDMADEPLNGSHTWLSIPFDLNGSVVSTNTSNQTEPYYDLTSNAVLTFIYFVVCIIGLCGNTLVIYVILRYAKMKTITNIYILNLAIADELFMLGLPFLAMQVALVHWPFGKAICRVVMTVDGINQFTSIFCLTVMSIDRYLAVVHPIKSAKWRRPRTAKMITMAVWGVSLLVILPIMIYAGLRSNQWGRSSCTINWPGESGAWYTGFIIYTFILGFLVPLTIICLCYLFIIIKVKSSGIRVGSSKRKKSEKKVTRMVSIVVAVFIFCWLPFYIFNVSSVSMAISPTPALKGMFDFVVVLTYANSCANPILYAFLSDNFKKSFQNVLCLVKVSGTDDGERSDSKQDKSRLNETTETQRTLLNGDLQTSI
T2 sequence (Q96RI9 whole entry): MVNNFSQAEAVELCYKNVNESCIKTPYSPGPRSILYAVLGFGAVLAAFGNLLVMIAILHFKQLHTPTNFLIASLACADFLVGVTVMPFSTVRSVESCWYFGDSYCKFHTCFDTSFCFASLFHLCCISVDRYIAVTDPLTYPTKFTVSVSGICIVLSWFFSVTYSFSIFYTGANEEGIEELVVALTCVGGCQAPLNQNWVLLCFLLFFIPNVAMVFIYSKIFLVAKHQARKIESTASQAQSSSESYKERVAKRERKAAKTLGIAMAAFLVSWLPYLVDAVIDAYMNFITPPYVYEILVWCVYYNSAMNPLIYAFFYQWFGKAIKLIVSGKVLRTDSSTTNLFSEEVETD
Chain of 320 non-olfactory GPCRs (Homo sapiens, UniProt O95977) (O95977 whole entry): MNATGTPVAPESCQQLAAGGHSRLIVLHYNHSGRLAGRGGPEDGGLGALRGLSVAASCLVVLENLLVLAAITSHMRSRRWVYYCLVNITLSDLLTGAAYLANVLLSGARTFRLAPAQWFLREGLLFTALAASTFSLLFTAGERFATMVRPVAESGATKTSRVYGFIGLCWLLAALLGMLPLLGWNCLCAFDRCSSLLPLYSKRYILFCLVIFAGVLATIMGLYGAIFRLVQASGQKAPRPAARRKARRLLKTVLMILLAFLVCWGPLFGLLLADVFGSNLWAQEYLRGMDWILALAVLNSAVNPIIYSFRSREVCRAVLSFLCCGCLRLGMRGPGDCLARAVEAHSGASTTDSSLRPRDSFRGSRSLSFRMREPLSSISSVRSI
T1 sequence (Q96RJ0 whole entry): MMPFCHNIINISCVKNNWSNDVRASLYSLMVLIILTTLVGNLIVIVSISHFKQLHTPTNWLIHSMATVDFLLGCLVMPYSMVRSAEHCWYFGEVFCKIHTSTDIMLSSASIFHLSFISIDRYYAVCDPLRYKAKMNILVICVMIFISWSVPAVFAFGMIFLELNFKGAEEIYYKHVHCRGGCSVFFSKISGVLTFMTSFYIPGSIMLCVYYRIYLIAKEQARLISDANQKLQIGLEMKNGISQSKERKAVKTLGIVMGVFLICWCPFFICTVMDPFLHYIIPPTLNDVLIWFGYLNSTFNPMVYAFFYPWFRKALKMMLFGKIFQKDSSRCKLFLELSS

Row | Compound | GPCRome screening signal at TA1 [1, 5] | GPCRome screening signal at S1PR4 [2, 5] | GPCRome screening signal at SSTR2 [3, 5] | GPCRome screening signal at TAAR9 [4, 5] | GPCRome agonism screen response ([1]; replicate values, Fig_4g) | GPCRome agonism screen response ([2]; replicate values, Fig_4g) | GPCRome agonism screen response ([3]; replicate values, Fig_4g) | GPCRome agonism screen response ([4]; replicate values, Fig_4g)
1 | CCOc1ccccc1CCC(C)NCC1(O)CCCCC1.Cl (racemic) [Fig_5f] | 0.8481 and 0.8735 and 0.8675 and 0.7534 | 1.441 and 1.208 and 0.7517 and 1.693 | 1.092 and 1.759 and 1.157 and 0.8246 | 1.0253 and 1.396 and 1.2735 and 0.8423 |  |  |  | 
2 | CCOc1cccc2cc(C(C)NCC3(O)CCCCC3)oc12 (centres unmarked) [O4LE6] |  |  |  |  | 0.6778 and 0.9948 and 0.7841 and 0.8752 | 0.2093 and 0.09901 and 4.053 and 0.7997 | 0.9255 and 0.9659 and 1.077 and 0.7883 | 0.8369 and 1.036 and 0.7156 and 1.104

From publication PMC7044277 (Nature Communications, 2020)
